Results taken from PubChem BioAssay AID1963875 (Molecular Pharmacology Branch, DTP, NCI, 2024).

Test system: KRAS-mutant PDC complex spheroid viability
Assay: Anticancer human tumor 186277-243-T-J2-PDC patient-derived colon adenocarcinoma cell line growth inhibition [KRAS2]
Details: for viability, T/C: stronger effect = lower value
In short: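 KRAS-mutant tumor cells were grown as spheroids with HUVEC endothelial cells and human MSCs as stroma. Targeted agents were tested alone and with KRAS pathway inhibitors. Doses started at or near clinical Cmax, or 10 microM, descending half-log.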

[1] = curve of first compound, second compound 0.1 µM
[2] = curve of first compound, second compound 0.316 µM
[3] = curve of first compound, second compound 1 µM
[4] = curve of first compound, second compound 3.16 µM
[5] = second compound 0.1 µM, first compound 0.0316 µM
[6] = second compound 0.1 µM, first compound 0.1 µM
[7] = second compound 0.1 µM, first compound 0.316 µM
[8] = second compound 0.1 µM, first compound 1 µM
[9] = second compound 0.1 µM, first compound 3.16 µM
[10] = second compound 0.1 µM, first compound 10 µM
[11] = second compound 0.316 µM, first compound 0.0316 µM
[12] = second compound 0.316 µM, first compound 0.1 µM
[13] = second compound 0.316 µM, first compound 0.316 µM
[14] = second compound 0.316 µM, first compound 1 µM
[15] = second compound 0.316 µM, first compound 3.16 µM
[16] = second compound 0.316 µM, first compound 10 µM
[17] = second compound 1 µM, first compound 0.0316 µM
[18] = second compound 1 µM, first compound 0.1 µM
[19] = second compound 1 µM, first compound 0.316 µM
[20] = second compound 1 µM, first compound 1 µM
[21] = second compound 1 µM, first compound 3.16 µM
[22] = second compound 1 µM, first compound 10 µM
[23] = second compound 3.16 µM, first compound 0.0316 µM
[24] = second compound 3.16 µM, first compound 0.1 µM
[25] = second compound 3.16 µM, first compound 0.316 µM
[26] = second compound 3.16 µM, first compound 1 µM
[27] = second compound 3.16 µM, first compound 3.16 µM
[28] = second compound 3.16 µM, first compound 10 µM
[29] = curve of first compound, second compound 10 µM
[30] = second compound 10 µM, first compound 0.0316 µM
[31] = second compound 10 µM, first compound 0.1 µM
[32] = second compound 10 µM, first compound 0.316 µM
[33] = second compound 10 µM, first compound 1 µM
[34] = second compound 10 µM, first compound 3.16 µM
[35] = second compound 10 µM, first compound 10 µM
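For viability, T/C in this document: viability read after seven days of compound exposure; 100% = DMSO vehicle-treated spheroids so lower means less viable.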

Structure (SMILES) | IC50 [1] | IC50 [2] | IC50 [3] | IC50 [4] | viability, T/C [5] | viability, T/C [6] | viability, T/C [7] | viability, T/C [8] | viability, T/C [11] | viability, T/C [12] | viability, T/C [13] | viability, T/C [14] | viability, T/C [17] | viability, T/C [18] | viability, T/C [19] | viability, T/C [20] | viability, T/C [23] | viability, T/C [24] | viability, T/C [25] | viability, T/C [26] | further results
CC(C)NCC(C(=O)N1CCN(c2ncnc3c2C(C)CC3O)CC1)c1ccc(Cl)cc1 (configuration not stated) + C=CC(=O)N1CCN(c2nc(OCC3CCCN3C)nc3c2CCN(c2cccc4cccc(C)c24)C3)CC1CC#N | 664 nM | 505 nM | 248 nM | < 31.6 nM | 113% | 87.8% | 72.7% | 36.5% | 108% | 96.3% | 62.4% | 29.9% | 97.8% | 104% | 36.3% | 18.4% | 0.22% | 0.21% | 0.16% | 0.13% | IC50 (curve of first compound, second compound 0.0316 µM): 691 nM; viability, T/C (second compound 0.0316 µM, first compound 0.0316 µM): 93.5%; viability, T/C (second compound 0.0316 µM, first compound 0.1 µM): 105%; viability, T/C (second compound 0.0316 µM, first compound 0.316 µM): 73.5%; viability, T/C (second compound 0.0316 µM, first compound 1 µM): 37%; viability, T/C (second compound 0.0316 µM, first compound 3.16 µM): 26.5%; viability, T/C (second compound 0.0316 µM, first compound 10 µM): 11.2%; viability, T/C [9]: 23.6%; viability, T/C [10]: 12.3%; viability, T/C [15]: 19.2%; viability, T/C [16]: 8.67%; viability, T/C [21]: 9.11%; viability, T/C [22]: 4.64%; viability, T/C [27]: 0.12%; viability, T/C [28]: 0.21%
Cn1ncnc1[C@H]1c2n[nH]c(=O)c3cc(F)cc(c23)N[C@@H]1c1ccc(F)cc1 |  |  |  |  |  |  |  |  |  |  |  |  |  |  |  |  |  |  |  |  | viability, T/C (compound 0.000316 µM): 99% [middle of 5 runs]; viability, T/C (compound 0.001 µM): 98% [middle of 5 runs]; viability, T/C (compound 0.00316 µM): 101% [middle of 5 runs]; viability, T/C (compound 0.01 µM): 98.1% [middle of 5 runs]; viability, T/C (compound 0.0316 µM): 91% [middle of 5 runs]; viability, T/C (compound 0.1 µM): 80.8% [middle of 5 runs]; IC50 (curve of compound): > 100 nM
CCN1CCN(Cc2ccc(Nc3ncc(F)c(-c4cc(F)c5nc(C)n(C(C)C)c5c4)n3)nc2)CC1 + COc1cc2nc(C)nc(NC(C)c3cc(N)cc(C(F)(F)F)c3)c2cc1OC1CCOC1 | > 1000 nM | > 1000 nM | > 1000 nM | 714 nM | 118% | 165% | 173% | 69.4% | 130% | 163% | 146% | 58% | 115% | 157% | 123% | 50.9% | 138% | 157% | 108% | 26.4% | IC50 [29]: 64 nM; viability, T/C (second compound 0.1 µM, first compound 0.00316 µM): 97.9%; viability, T/C (second compound 0.1 µM, first compound 0.01 µM): 93.2%; viability, T/C (second compound 0.316 µM, first compound 0.00316 µM): 101%; viability, T/C (second compound 0.316 µM, first compound 0.01 µM): 93.6%; viability, T/C (second compound 1 µM, first compound 0.00316 µM): 96%; viability, T/C (second compound 1 µM, first compound 0.01 µM): 109%; viability, T/C (second compound 3.16 µM, first compound 0.00316 µM): 91.9%; viability, T/C (second compound 3.16 µM, first compound 0.01 µM): 98.1%; viability, T/C (second compound 10 µM, first compound 0.00316 µM): 103%; viability, T/C (second compound 10 µM, first compound 0.01 µM): 104%; viability, T/C [30]: 100%; viability, T/C [31]: 18.2%; viability, T/C [32]: 4.89%; viability, T/C [33]: 0.61%
CC(C)NCC(C(=O)N1CCN(c2ncnc3c2C(C)CC3O)CC1)c1ccc(Cl)cc1 (configuration not stated) + C=CC(=O)N1CCN(c2nc(=O)n(-c3c(C)ccnc3C(C)C)c3nc(-c4c(O)cccc4F)c(F)cc23)C(C)C1 | 615 nM | 650 nM | 636 nM | 271 nM | 102% | 99.5% | 63.7% | 37.5% | 106% | 93.6% | 63.2% | 41.1% | 109% | 103% | 66.5% | 36.7% | 100% | 85.1% | 40.9% | 25.7% | IC50 [29]: 51.3 nM; viability, T/C [9]: 27.9%; viability, T/C [10]: 13.4%; viability, T/C [15]: 23.9%; viability, T/C [16]: 11.8%; viability, T/C [21]: 26.3%; viability, T/C [22]: 10.6%; viability, T/C [27]: 14.3%; viability, T/C [28]: 8.27%; viability, T/C [30]: 70.3%; viability, T/C [31]: 20.1%; viability, T/C [32]: 15.9%; viability, T/C [33]: 8.02%; viability, T/C [34]: 6.56%; viability, T/C [35]: 2.87%
O=C(c1cc(Cc2n[nH]c(=O)c3ccccc23)ccc1F)N1CCN(C(=O)C2CC2)CC1 + COc1cc2nc(C)nc(NC(C)c3cc(N)cc(C(F)(F)F)c3)c2cc1OC1CCOC1 | 8250 nM | 5900 nM | 8780 nM | 4490 nM | 107% | 105% | 114% | 116% | 105% | 102% | 107% | 116% | 111% | 104% | 107% | 122% | 109% | 98.3% | 109% | 110% | IC50 [29]: 872 nM; viability, T/C [9]: 99.1%; viability, T/C [10]: 40.1%; viability, T/C [15]: 67.9%; viability, T/C [16]: 34.8%; viability, T/C [21]: 88.2%; viability, T/C [22]: 45.1%; viability, T/C [27]: 61%; viability, T/C [28]: 25.1%; viability, T/C [30]: 102%; viability, T/C [31]: 101%; viability, T/C [32]: 81.3%; viability, T/C [33]: 48.4%; viability, T/C [34]: 11.5%; viability, T/C [35]: 10.1%
CC1OCC2(CCN(c3cnc(Sc4ccnc(N)c4Cl)c(N)n3)CC2)C1N (configuration not stated) + C=CC(=O)N1CCN(c2nc(=O)n(-c3c(C)ccnc3C(C)C)c3nc(-c4c(O)cccc4F)c(F)cc23)C(C)C1 | > 10000 nM | > 10000 nM | > 10000 nM | > 10000 nM | 99.3% | 97% | 99.2% | 105% | 99.9% | 93.2% | 96.1% | 99.4% | 101% | 99% | 93.4% | 90.1% | 80.4% | 87.2% | 76.6% | 82.9% | IC50 [29]: 449 nM; viability, T/C [9]: 104%; viability, T/C [10]: 107%; viability, T/C [15]: 101%; viability, T/C [16]: 102%; viability, T/C [21]: 94.4%; viability, T/C [22]: 80.2%; viability, T/C [27]: 80.5%; viability, T/C [28]: 62.8%; viability, T/C [30]: 53.9%; viability, T/C [31]: 52.8%; viability, T/C [32]: 56.4%; viability, T/C [33]: 40.7%; viability, T/C [34]: 22.7%; viability, T/C [35]: 19.5%
